In ChEMBL document CHEMBL4308841, “Synthesis, in vitro antiproliferative activity, and kinase inhibitory effects of pyrazole-containing diarylureas and diarylamides” (Eur J Med Chem, 2018):

Legend:
UO-31 = assay: Growth inhibition of human UO31 cells assessed as cell growth at 10 uM incubated for 48 hrs by sulforhodamine B assay relative to control; assay type: functional; conditions: UO-31, 48 h, read-out: Activity
SK-MEL-5 [1] = assay: Growth inhibition of human SK-MEL-5 cells assessed as cell growth at 100 uM incubated for 48 hrs by sulforhodamine B assay relative to control; assay type: functional; conditions: SK-MEL-5, 48 h, read-out: Activity
NCI-H23 = assay: Growth inhibition of human NCI-H23 cells assessed as cell growth at 10 uM incubated for 48 hrs by sulforhodamine B assay relative to control; assay type: functional; conditions: NCI-H23, 48 h, read-out: Activity
SF-268 = assay: Growth inhibition of human SF268 cells assessed as cell growth at 10 uM incubated for 48 hrs by sulforhodamine B assay relative to control; assay type: functional; conditions: SF-268, 48 h, read-out: Activity
M14 = assay: Growth inhibition of human M14 cells assessed as cell growth at 10 uM incubated for 48 hrs by sulforhodamine B assay relative to control; assay type: functional; conditions: M14, 48 h, read-out: Activity
KM12 = assay: Growth inhibition of human KM12 cells incubated for 48 hrs by sulforhodamine B assay; assay type: functional, cell-based; conditions: KM12, 48 h
CAKI-1 = assay: Growth inhibition of human Caki1 cells assessed as cell growth at 10 uM incubated for 48 hrs by sulforhodamine B assay relative to control; assay type: functional; conditions: CAKI-1, 48 h, read-out: Activity
LOX IMVI [2] = assay: Growth inhibition of human LOXIMVI cells assessed as cell growth at 10 uM incubated for 48 hrs by sulforhodamine B assay relative to control; assay type: functional; conditions: read-out: Activity
DU-145 = assay: Growth inhibition of human DU145 cells assessed as cell growth at 1 uM incubated for 48 hrs by sulforhodamine B assay relative to control; assay type: functional; conditions: DU-145, 48 h, read-out: Activity
MDA-MB-468 = assay: Growth inhibition of human MDA-MB-468 cells incubated for 48 hrs by sulforhodamine B assay; assay type: functional, cell-based; conditions: MDA-MB-468, 48 h
NCI-H460 = assay: Growth inhibition of human NCI-H460 cells assessed as cell growth at 10 uM incubated for 48 hrs by sulforhodamine B assay relative to control; assay type: functional; conditions: NCI-H460, 48 h, read-out: Activity
SW-620 = assay: Growth inhibition of human SW620 cells assessed as cell growth at 10 uM incubated for 48 hrs by sulforhodamine B assay relative to control; assay type: functional; conditions: SW-620, 48 h, read-out: Activity
SNB-19 = assay: Growth inhibition of human SNB19 cells assessed as cell growth at 1 uM incubated for 48 hrs by sulforhodamine B assay relative to control; assay type: functional; conditions: SNB-19, 48 h, read-out: Activity
SN12C = assay: Growth inhibition of human SN12C cells assessed as cell growth at 10 uM incubated for 48 hrs by sulforhodamine B assay relative to control; assay type: functional; conditions: read-out: Activity
HCC 2998 = assay: Growth inhibition of human HCC2998 cells assessed as cell growth at 10 uM incubated for 48 hrs by sulforhodamine B assay relative to control; assay type: functional; conditions: HCC 2998, 48 h, read-out: Activity
LOX IMVI [3] = assay: Growth inhibition of human LOXIMVI cells assessed as cell growth at 0.1 uM incubated for 48 hrs by sulforhodamine B assay relative to control; assay type: functional; conditions: read-out: Activity
SK-MEL-5 [4] = assay: Growth inhibition of human SK-MEL-5 cells assessed as cell growth at 10 uM incubated for 48 hrs by sulforhodamine B assay relative to control; assay type: functional; conditions: SK-MEL-5, 48 h, read-out: Activity
OVCAR-4 = assay: Growth inhibition of human OVCAR4 cells assessed as cell growth at 10 uM incubated for 48 hrs by sulforhodamine B assay relative to control; assay type: functional; conditions: OVCAR-4, 48 h, read-out: Activity
HCT-15 = assay: Growth inhibition of human HCT15 cells assessed as cell growth at 10 uM incubated for 48 hrs by sulforhodamine B assay relative to control; assay type: functional; conditions: HCT-15, 48 h, read-out: Activity
Hs-578T = assay: Growth inhibition of human Hs578T cells assessed as cell growth at 10 uM incubated for 48 hrs by sulforhodamine B assay relative to control; assay type: functional; conditions: read-out: Activity
CCRF-CEM = assay: Growth inhibition of human CCRF-CEM cells incubated for 48 hrs by sulforhodamine B assay; assay type: functional, cell-based
RXF 393 = assay: Growth inhibition of human RXF393 cells assessed as cell growth at 10 uM incubated for 48 hrs by sulforhodamine B assay relative to control; assay type: functional; conditions: RXF 393, 48 h, read-out: Activity
COLO 205 [5] = assay: Growth inhibition of human COLO205 cells assessed as cell growth at 0.1 uM incubated for 48 hrs by sulforhodamine B assay relative to control; assay type: functional; conditions: COLO 205, 48 h, read-out: Activity
HL-60(TB) = assay: Growth inhibition of human HL-60(TB) cells assessed as cell growth at 0.1 uM incubated for 48 hrs by sulforhodamine B assay relative to control; assay type: functional; conditions: HL-60, 48 h, read-out: Activity
OVCAR-8 = assay: Growth inhibition of human OVCAR8 cells assessed as cell growth at 10 uM incubated for 48 hrs by sulforhodamine B assay relative to control; assay type: functional; conditions: OVCAR-8, 48 h, read-out: Activity
MCF7 = assay: Growth inhibition of human MCF7 cells assessed as cell growth at 10 uM incubated for 48 hrs by sulforhodamine B assay relative to control; assay type: functional; conditions: MCF7, 48 h, read-out: Activity
786-0 = assay: Growth inhibition of human 786-0 cells assessed as cell growth at 10 uM incubated for 48 hrs by sulforhodamine B assay relative to control; assay type: functional; conditions: 786-0, 48 h, read-out: Activity
NCI-H522 = assay: Growth inhibition of human NCI-H522 cells assessed as cell growth at 1 uM incubated for 48 hrs by sulforhodamine B assay relative to control; assay type: functional; conditions: NCI-H522, 48 h, read-out: Activity
COLO 205 [6] = assay: Growth inhibition of human COLO205 cells assessed as cell growth at 10 uM incubated for 48 hrs by sulforhodamine B assay relative to control; assay type: functional; conditions: COLO 205, 48 h, read-out: Activity
MDA-MB-435 = assay: Growth inhibition of human MDA-MB-435 cells assessed as cell growth at 10 uM incubated for 48 hrs by sulforhodamine B assay relative to control; assay type: functional; conditions: MDA-MB-435, 48 h, read-out: Activity
Malme-3M = assay: Growth inhibition of human MALME-3M cells assessed as cell growth at 10 uM incubated for 48 hrs by sulforhodamine B assay relative to control; assay type: functional; conditions: read-out: Activity
SR = assay: Growth inhibition of human SR cells assessed as cell growth at 1 uM incubated for 48 hrs by sulforhodamine B assay relative to control; assay type: functional; conditions: read-out: Activity
[7] = read-out: LC50 (the source's name)
[8] = read-out: pLC50 (the source's name) (converted)

With `COc1cc(Cl)cc(-c2nn(-c3cccc(NC(=O)Nc4ccc(Cl)c(Cl)c4)c3)cc2-c2ccncc2)c1` the growth at 10 µM (UO-31) was 0.64%, the growth at 100 µM (SK-MEL-5 [1]) was -68% and the growth at 10 µM (NCI-H23) was 5.72%. The growth at 10 µM (SF-268) was 25.3%, the growth at 10 µM (M14) was 18.7% and the GI50 (KM12; read-out: GI50) was 2.02 µM. The CC50 (KM12; [7]) was greater than 100 µM, the TGI (KM12; read-out: TGI) was 10.8 µM and the GI50 (KM12; read-out: pGI50 (converted)) was 2.04 µM. The CC50 (KM12; [8]) was greater than 100 µM, the TGI (KM12; read-out: pTGI (converted)) was 10.7 µM and the growth at 10 µM (CAKI-1) was 7.49%. The growth at 10 µM (LOX IMVI [2]) was 9.24%, the growth at 1 µM (DU-145) was 93% and the IC50 (MDA-MB-468) was 1.74 µM. It also gave a GI50 (MDA-MB-468; read-out: GI50) of 1.74 µM, a CC50 (MDA-MB-468; [7]) greater than 100 µM and a TGI (MDA-MB-468; read-out: TGI) of 73.7 µM. The GI50 (MDA-MB-468; read-out: pGI50 (converted)) was 1.74 µM, the CC50 (MDA-MB-468; [8]) was greater than 100 µM and the TGI (MDA-MB-468; read-out: pTGI (converted)) was 7.41 µM. It also gave a growth at 10 µM (NCI-H460) of 3.1%, a growth at 10 µM (SW-620) of 13.3% and a growth at 1 µM (SNB-19) of 89%. The growth at 10 µM (SN12C) was 15.5%, the growth at 10 µM (HCC 2998) was 26.7% and the growth at 0.1 µM (LOX IMVI [3]) was 94%. The growth at 10 µM (SK-MEL-5 [4]) was 3.51%, the growth at 10 µM (OVCAR-4) was 13.3% and the growth at 10 µM (HCT-15) was 13.9%. It also gave a growth at 10 µM (Hs-578T) of 28.5%, a GI50 (CCRF-CEM; read-out: GI50) of 2 µM and a CC50 (CCRF-CEM; [7]) greater than 100 µM. It also gave a TGI (CCRF-CEM; read-out: TGI) of 50 µM, a GI50 (CCRF-CEM; read-out: pGI50 (converted)) of 2 µM and a CC50 (CCRF-CEM; [8]) greater than 100 µM. For the same compound, the TGI (CCRF-CEM; read-out: pTGI (converted)) was 6.03 µM, the growth at 10 µM (RXF 393) was 4.46% and the growth at 0.1 µM (COLO 205 [5]) was 103%. It also gave a growth at 0.1 µM (HL-60(TB)) of 93%, a growth at 10 µM (OVCAR-8) of 1.93% and a growth at 10 µM (MCF7) of 4.66%. It also gave a growth at 10 µM (786-0) of 19.6%, a growth at 1 µM (NCI-H522) of 60% and a growth at 10 µM (COLO 205 [6]) of -70.3%. For the same compound, the growth at 10 µM (MDA-MB-435) was 0.46%, the growth at 10 µM (Malme-3M) was -19.8% and the growth at 1 µM (SR) was 68%.
